In experiment [1] the test system is Schistosoma mansoni. The experiment is described as follows: Antischistosomicidal activity against Schistosoma mansoni egyptian strain assessed as worm mortality at 5 ug/ml after 5 days by stereomicroscopy. It is filed as functional. The conditions noted are these: 120 h.
Experiment [2] has as its system Schistosoma mansoni. Briefly: Antischistosomicidal activity against Schistosoma mansoni egyptian strain assessed as worm mortality after 5 days by stereomicroscopy. Conditions: for IC90: Schistosoma mansoni, egyptian strain, 120 h. In kind it is functional, organism-based.

Each structure is given as a SMILES string.

With `Cn1c2nc3ccccc3c-2c(Cl)c2cc(Br)ccc21`, the mortality at 5 µg/mL in the experiment on Schistosoma mansoni [1] stood at 25%.
As to `Cn1c2nc3ccccc3c-2c(NCCc2c[nH]c3ccccc23)c2ccccc21`, in the experiment with Schistosoma mansoni [1], the mortality at 5 µg/mL worked out at 100%. In the experiment with Schistosoma mansoni [2], the IC50 was determined as 2.7 uM/ml and the IC90 was 3.95 µM.
For `Cn1c2nc3ccccc3c-2c(N2CCOCC2)c2ccccc21`, the mortality at 5 µg/mL in the experiment on Schistosoma mansoni [1] came out at 66.7%.
The same measure, in the same setting: as for `Cn1c2nc3ccccc3c-2c(NCCCO)c2cc(Br)ccc21`, the figure is 66.7%; as for `Cn1c2nc3ccccc3c-2c(N2CCN(CCO)CC2)c2cc(C(F)(F)F)ccc21`, 25%.
Turning to `Cn1c2nc3ccccc3c-2c(NCCCN2CCN(CCCNc3c4c5ccccc5nc-4n(C)c4ccc(Cl)cc34)CC2)c2cc(Cl)ccc21`, the mortality at 5 µg/mL with Schistosoma mansoni [1] was found to be 100%. In addition, in the experiment on Schistosoma mansoni [2], the IC50 was determined as 3.42 uM/ml and the IC90 was found to be 5.1 µM.
As for `Cn1c2nc3ccccc3c-2c(NCCCN2CCN(CCCNc3c4c5ccccc5nc-4n(C)c4ccc(C(F)(F)F)cc34)CC2)c2cc(C(F)(F)F)ccc21`, the mortality at 5 µg/mL with Schistosoma mansoni [1] was 8.3%.
The same measure, in the same setting: as for `Cn1c2nc3ccccc3c-2c(Nc2ccc(CCO)cc2)c2ccccc21`, the figure is 58.3%.
As for `Cn1c2nc3ccccc3c-2c(Nc2ccc(C(F)(F)F)cc2)c2ccccc21`, the mortality at 5 µg/mL in the experiment on Schistosoma mansoni [1] stood at 100%. In the experiment with Schistosoma mansoni [2], the IC50 stood at 3.73 uM/ml and the 90% effect concentration (IC90) is 4.81 µM.
Take `Cn1c2nc3ccccc3c-2c(Nc2ccc(CCO)cc2)c2cc(Br)ccc21`: in the experiment on Schistosoma mansoni [1], the mortality at 5 µg/mL amounted to 91.7%.
As for `Cn1c2nc3ccccc3c-2c(Nc2ccccc2)c2ccccc21`, the mortality at 5 µg/mL with Schistosoma mansoni [1] was found to be 100%. For the same molecule, in the experiment with Schistosoma mansoni [2], the IC50 was found to be 3.07 uM/ml and the IC90 amounted to 4.3 µM.
On to `CN1CCN(c2c3c4ccccc4nc-3n(C)c3ccccc23)CC1`, for which the mortality at 5 µg/mL in the experiment with Schistosoma mansoni [1] is 0%.
As to `CN1CCN(c2c3c4ccccc4nc-3n(C)c3ccc(C(F)(F)F)cc23)CC1`, the mortality at 5 µg/mL in the experiment on Schistosoma mansoni [1] came out at 100%. Further, in the experiment with Schistosoma mansoni [2], the IC50 turned out to be 4.61 uM/ml and the IC90 is 6.05 µM.
For the molecule `Cn1c2nc3ccccc3c-2c(Cl)c2cc(C(F)(F)F)ccc21`, the mortality at 5 µg/mL with Schistosoma mansoni [1] was 91.7%.
On the same count and under the same terms, then `Clc1ccc2nc3[nH]c4ccccc4c3c(Cl)c2c1`, with 0%.
Take `CCN(CC)CCCC(C)Nc1c2c3ccccc3nc-2n(C)c2ccc(Cl)cc12` (stereo not drawn): the mortality at 5 µg/mL in the experiment on Schistosoma mansoni [1] amounted to 100%. For the same molecule, in the experiment with Schistosoma mansoni [2], the IC50 was 11.74 uM/ml and the IC90 amounted to 16.8 µM.
Take `Cn1c2nc3ccccc3c-2c(Cl)c2ccccc21` [11-CHLORONEOCRYPTOLEPINE]: in the experiment with Schistosoma mansoni [1], the mortality at 5 µg/mL is 75%.
The same measure, in the same setting: then `Cn1c2nc3ccccc3c-2cc2ccccc21` [NEOCRYPTOLEPINE], with 5%.
As for `O=C(C1CCCCC1)N1CC(=O)N2CCc3ccccc3C2C1` (stereo not drawn) [PRAZIQUANTEL], the mortality at 5 µg/mL with Schistosoma mansoni [1] came to 100%. Also, in the experiment on Schistosoma mansoni [2], the IC50 is listed as 0.21 uM/ml and the IC90 came out at 0.37 µM.

By mortality is commonly meant the share of the test organisms that died. A word on the IC90: it is the concentration needed for an effect of 90%.

For the origin of these results see ChEMBL document CHEMBL3045194, “Neocryptolepine analogues containing N-substituted side-chains at C-11: synthesis and antischistosomicidal activity” (Med Chem Res, 2012).
